According to ChEMBL document CHEMBL1147995, “In-vitro investigation of oxazol and urea analogues of morphinan at opioid receptors” (Bioorg Med Chem, 2007):

Experiments:
[1] = Displacement of [3H]naltrindole from human delta opioid receptor expressed in CHO membrane
[2] = biological target: T1, Kappa-type opioid receptor (Homo sapiens, UniProt P41145); experiment: Displacement of [3H]U69,593 from human kappa opioid receptor expressed in CHO membrane; format: cell membranes
Mu-type opioid receptor [3] = biological target: T2, Mu-type opioid receptor (Homo sapiens, UniProt P35372); experiment: Displacement of [3H]DAMGO from human mu opioid receptor expressed in CHO membrane; format: cell membranes
T2 sequence (P35372 whole entry): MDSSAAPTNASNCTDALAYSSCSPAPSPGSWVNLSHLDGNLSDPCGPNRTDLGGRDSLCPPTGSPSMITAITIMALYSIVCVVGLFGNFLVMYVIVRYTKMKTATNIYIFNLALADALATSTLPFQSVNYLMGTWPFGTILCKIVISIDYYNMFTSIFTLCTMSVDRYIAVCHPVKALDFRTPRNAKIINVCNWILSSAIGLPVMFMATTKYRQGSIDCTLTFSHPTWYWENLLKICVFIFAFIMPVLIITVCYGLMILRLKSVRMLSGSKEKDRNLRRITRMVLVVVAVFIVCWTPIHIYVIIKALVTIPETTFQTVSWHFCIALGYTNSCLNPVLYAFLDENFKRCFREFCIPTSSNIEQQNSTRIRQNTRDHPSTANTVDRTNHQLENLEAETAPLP

[4] = biological target: T1, Kappa-type opioid receptor; experiment: Agonist activity at human kappa opioid receptor expressed in CHO cells assessed as stimulation of [35S]GTP-gamma-S binding relative to basal level after 60 mins; format: functional, cell-based
[5] = biological target: T1, Kappa-type opioid receptor; experiment: Agonist activity at human kappa opioid receptor expressed in CHO cells assessed as stimulation of [35S]GTP-gamma-S binding after 60 mins; format: functional, cell-based
[6] = biological target: T3, Delta-type opioid receptor (Homo sapiens, UniProt P41143); experiment: Displacement of [3H]naltrindole from human delta opioid receptor expressed in CHO membrane; format: cell membranes
T3 sequence (P41143 whole entry): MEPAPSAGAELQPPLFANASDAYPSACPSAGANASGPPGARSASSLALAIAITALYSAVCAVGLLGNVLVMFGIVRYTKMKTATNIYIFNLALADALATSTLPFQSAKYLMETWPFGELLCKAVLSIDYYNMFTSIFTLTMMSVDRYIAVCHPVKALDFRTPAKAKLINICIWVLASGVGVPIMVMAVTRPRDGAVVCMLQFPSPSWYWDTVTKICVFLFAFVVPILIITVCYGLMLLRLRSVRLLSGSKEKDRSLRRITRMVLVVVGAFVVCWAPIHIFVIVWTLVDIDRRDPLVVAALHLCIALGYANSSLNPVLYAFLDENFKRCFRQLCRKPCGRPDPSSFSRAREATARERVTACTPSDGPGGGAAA

Mu-type opioid receptor [7] = biological target: T2, Mu-type opioid receptor; experiment: Agonist activity at human mu opioid receptor expressed in CHO cells assessed as stimulation of [35S]GTP-gamma-S binding after 60 mins; format: functional, cell-based
Mu-type opioid receptor [8] = biological target: T2, Mu-type opioid receptor; experiment: Agonist activity at human mu opioid receptor expressed in CHO cells assessed as stimulation of [35S]GTP-gamma-S binding relative to basal level after 60 mins; format: functional, cell-based
Mu-type opioid receptor [9] = biological target: T2, Mu-type opioid receptor; experiment: Antagonist activity at human mu opioid receptor expressed in CHO cells assessed as inhibition of DAMGO-induced [35S]GTPgammaS binding after 60 mins; format: functional, cell-based
[10] = biological target: T3, Delta-type opioid receptor; experiment: Displacement of [3H]naltrindole from human delta opioid receptor expressed in CHO membrane at 10 uM; format: cell membranes

T1 sequence (P41145 whole entry): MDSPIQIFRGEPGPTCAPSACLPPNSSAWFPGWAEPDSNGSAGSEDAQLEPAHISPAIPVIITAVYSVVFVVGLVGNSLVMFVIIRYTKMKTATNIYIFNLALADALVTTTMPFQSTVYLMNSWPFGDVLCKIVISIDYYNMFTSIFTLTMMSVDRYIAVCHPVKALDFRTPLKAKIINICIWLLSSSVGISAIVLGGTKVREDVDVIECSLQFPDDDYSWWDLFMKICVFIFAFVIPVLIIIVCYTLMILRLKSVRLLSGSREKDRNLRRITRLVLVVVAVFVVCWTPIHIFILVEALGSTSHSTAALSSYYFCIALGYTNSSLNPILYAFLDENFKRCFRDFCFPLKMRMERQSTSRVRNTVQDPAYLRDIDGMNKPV

Row | Structure (SMILES) | Ki [1] [nM] | Ki [2] [nM] | Ki (Mu-type opioid receptor [3]) [nM] | Emax [4] [%] | EC50 [5] [nM] | Ki [6] [nM] | EC50 (Mu-type opioid receptor [7]) [nM] | Emax (Mu-type opioid receptor [8]) [%] | IC50 (Mu-type opioid receptor [9]) [nM] | Imax (Mu-type opioid receptor [9]) [%] | inhibition [10] [%]
1 | Nc1ccc2c(c1)[C@@]13CCCC[C@H]1[C@@H](C2)N(CC1CCC1)CC3 | 180 | – | – | – | – | – | – | – | – | – | –
2 | Nc1ccc2c(c1)[C@@]13CCCC[C@H]1[C@@H](C2)N(CC1CC1)CC3 | 150 | 0.18 | 1.3 | – | – | – | – | – | – | – | –
3 | NC(=O)Nc1ccc2c(c1)[C@@]13CCCC[C@H]1[C@@H](C2)N(CC1CC1)CC3 | – | 0.61 | 1.4 | 84 | 33 | 23 | 31 | 21 | 380 | 52 | –
4 | O=c1[nH]c2cc3c(cc2o1)[C@@]12CCCC[C@H]1[C@@H](C3)N(CC1CC1)CC2 | – | 47 | 160 | – | – | – | – | – | – | – | 44
5 | O=c1[nH]c2cc3c(cc2o1)[C@@]12CCCC[C@H]1[C@@H](C3)N(CC1CCC1)CC2 | – | 1.9 | 5.8 | – | – | 360 | – | – | – | – | –
6 | Nc1nc2cc3c(cc2o1)[C@@]12CCCC[C@H]1[C@@H](C3)N(CC1CCC1)CC2 | – | 6.6 | 40 | – | – | – | – | – | – | – | 46
7 | NC(=O)Nc1ccc2c(c1)[C@@]13CCCC[C@H]1[C@@H](C2)N(CC1CCC1)CC3 | – | 8.9 | 3.2 | 64 | 87 | 160 | 63 | 33 | 1500 | 35 | –
8 | Nc1nc2cc3c(cc2o1)[C@@]12CCCC[C@H]1[C@@H](C3)N(CC1CC1)CC2 | – | 52 | 150 | – | – | – | – | – | – | – | 18
9 | CNC(=O)Nc1ccc2c(c1)[C@@]13CCCC[C@H]1[C@@H](C2)N(CC1CCC1)CC3 | – | 20 | 22 | – | – | 270 | – | – | – | – | –
10 | CNC(=O)Nc1ccc2c(c1)[C@@]13CCCC[C@H]1[C@@H](C2)N(CC1CC1)CC3 | – | 2.3 | 12 | 67 | 8.4 | 50 | – | – | – | – | –
